Data taken from patent publication US11298333B1, “Methods of reducing the risk of cardiovascular events in a subject” (Amarin Pharmaceuticals Ireland Limited, priority 2018, dated 2022).

System: statin-treated patients with a history of atherosclerosis or diabetes
Experiment: REDUCE-IT Example 2: recurrent and total ischemic events (Andersen-Gill, Wei-Lin-Weissfeld)
Format: in vivo, human
Text: The following study was a multi-center, placebo-controlled clinical trial the details of which are described above in Example 1, the REDUCE-IT design. […] Randomization was stratified by cardiovascular risk cohort (i.e., secondary or primary prevention), use of ezetimibe, and by geographic region.
The primary outcome for the study was total recurrent events consisting of the composite of cardiovascular death, nonfatal myocardial infarction, nonfatal stroke, coronary revascularization, or hospitalization for unstable angina. Recurrent event analyses were also performed for the key secondary endpoint, a composite of cardiovascular death, non-fatal myocardial infarction, or non-fatal stroke. For each of these composite endpoints, the effects of icosapent ethyl in the secondary and primary prevention strata were examined separately.
Demographic and baseline disease characteristics are presented using frequencies and percentages for categorical variables and medians with interquartile ranges for continuous variables. Between treatment group comparisons were derived using the chi-square test for categorical variables and Wilcoxon rank test for continuous variables. All clinical endpoint events used in the efficacy analyses were adjudicated by an independent Clinical Endpoint Committee (CEC) who were blinded to the treatment assignment. Since the primary efficacy endpoint was the time from randomization to the first occurrence of any component of the composite endpoint, and recurrence of such events within each patient is possible, a pre-specified analysis using a Cox proportional-hazard with the counting-process formulation of Andersen and Gill was performed to model the first and all recurrent cardiovascular events. Hazard ratios (HR) and corresponding 95% confidence intervals (CI) are reported from this model. In addition, as a marginal model and an extension of survival models based on the Cox proportional hazard model, the modified Wei-Lin-Weissfeld (WLW) method for analysis of recurrent events in the presence of deaths was carried out as a supportive analysis. In addition, as pre-specified, a recurrent event analysis using the Andersen-Gill and Wei-Lin-Weissfeld methods were carried out for the individual primary event components other than CV death. Though not pre-specified, additional recurrent event analyses were performed for the key secondary endpoint, which is a composite of CV death, non-fatal MI, or non-fatal stroke, and for the primary endpoint and the key secondary endpoint in the primary and secondary prevention strata to explore further the consistency of clinical benefit of icosapent ethyl. In subgroup analyses of the two cardiovascular risk strata (i.e., primary and secondary prevention), site-level discrepancies in cardiovascular risk group assignment occurring at entry and detected during the study (1.8%) were adjusted to conform with documented medical history data prior to randomization. All efficacy analyses were performed according to the intention-to-treat principle. All tests were based on a 2-sided nominal significance level of 5% with no adjustments for multiple comparisons.

[1] = without adjusting for stratification differences
[2] = without adjustment for stratification differences

Compound: CC/C=C\C/C=C\C/C=C\C/C=C\C/C=C\CCCC(=O)OCC [Icosapent Ethyl, eicosapentaenoic acid ethyl ester]
- First occurrence of primary composite endpoint: HR vs placebo (Wei-Lin-Weissfeld model): 0.75
- Second occurrence of primary composite endpoint: HR vs placebo (Wei-Lin-Weissfeld model): 0.72
- Total key secondary endpoints: HR, primary prevention stratum (adjusted stratification): 0.71
- Total key secondary endpoints: HR, secondary prevention stratum (adjusted stratification): 0.70
- Total primary endpoint events: HR, primary prevention stratum (adjusted stratification): 0.79
- Total primary endpoint events: HR, secondary prevention stratum (adjusted stratification): 0.66
- Cardiovascular deaths prevented per 100 patients treated for five years (in vivo): 1
- Coronary revascularizations prevented per 100 patients treated for five years (in vivo): 8
- Episodes of unstable angina prevented per 100 patients treated for five years (in vivo): 2
- Myocardial infarctions prevented per 100 patients treated for five years (in vivo): 4
- Relative risk reduction in total events for the primary composite efficacy outcome (in vivo): 32%
- Strokes prevented per 100 patients treated for five years (in vivo): 1
- Total key secondary endpoints: HR vs placebo (overall): 0.71
- Total primary endpoint events: HR, primary prevention stratum [1]: 0.86
- Total primary endpoint events: HR, secondary prevention stratum [1]: 0.65
- Total key secondary endpoint events: HR, primary prevention [2]: 0.78
- Total key secondary endpoint events: HR, secondary prevention stratum [2]: 0.69
